Laboratory results published in US9682061B2, “Methods of treating bacterial infections using oritavancin” (THE MEDICINES COMPANY, priority 2009, dated 2017).
≈ marks a conversion by molar mass, not a printed value. Where two headings read alike, the source gives them in different places.

Legend:
S. aureus ATCC 29213 = test: Broth microdilution MIC with arithmetic drug dilutions; format: cell-based, Staphylococcus aureus; settings: for MIC: Staphylococcus aureus
Experimental: (§1) Pooled sera from humans, mice and rats were obtained from Equitech-Bio (Kerrville, Tex.); pooled serum from beagle dogs was from Bioreclamation (Liverpool, N.Y.). ULTRA was prepared using Centricon Plus-50 ultrafilters (Millipore, Billerica, Mass.), whose molecular weight cutoff (50 kDa) excludes albumin. ORI stock solutions were prepared following CLSI M100-818 (Clinical and Laboratory Standards Institute. 2008. CLSI document M100-S18). Staphylococcus aureus ATCC 29213 was used as the test isolate at a final inoculum of ˜5×10^5 CFU/mL in both MIC and AUIC studies.
(§2) Arithmetic MICs: Broth microdilution MIC assays with Staphylococcus aureus ATCC 29213 were based on CLSI guidelines (Clinical and Laboratory Standards Institute, 2009, CLSI document M7-A7). Growth media were 95% serum:5% CAMHB and 95% serum ultrafiltrate:5% CAMHB. Arithmetic dilutions of oritavancin and comparators were used to increase precision of minimum inhibitory concentration (MIC) values relative to doubling dilutions. Percent binding in serum was calculated as follows: % Bound=(1−[mean MICultrafiltrate/mean MICserum]×100%

mouse serum = settings: broth microdilution, various concentrations, Craig, unpublished; cited from earlier work
[1] = Serum protein binding estimated from MIC shift, serum vs serum ultrafiltrate (rat); format: in vitro ADME; settings: from mean MICs, broth microdilution, this study, read-out: % Bound (protein binding estimate) (converted)
From the text: (§3) Avid binding of oritavancin (ORI) to filtration and dialysis membranes renders most protein binding methodologies unsuitable. To control for any impact of serum components on bacterial growth and antibiotic activity, MIC shifts (from arithmetic drug dilutions) and area under the inhibitory curve (AUIC) shifts (from time-kill assays) were quantified in the presence of serum (SER) compared to SER ultrafiltrate (ULTRA; free of albumin) to estimate ORI binding to serum. In this manner, the extent of reduction in oritavancin activity in serum was related to its degree of serum protein binding. The method was benchmarked using daptomycin and ceftriaxone (Lee et al., Antimicrob Agents Chemother. 35:2505-2508 (1991); Schmidt et al., Antimicrob Agents Chemother. 52:3994-4000 (2008); Yuk et al., Clin Pharmacokinet. 17:223-235 (1989); McKay et al., Evaluation of oritavancin activity in vitro in the presence of human and mouse serum, abstr P1854. Abstr. 19th European Congress of Clinical Microbiology and Infectious Diseases. European Society of Clinical Microbiology and Infectious Diseases, Basel, Switzerland, May 16, 2009).
as §1
as §2, with “Arithmetic dilutions of oritavancin and comparators were used to increase precision of minimum inhibitory concentration (MIC) values relative to doubling dilutions.” left out

[2] = Protein binding estimates from time kill-based assays, summary; format: in vitro ADME; settings: human, mouse, pooled serum compared with serum ultrafiltrate; this study; summary value
From the text: Avid binding of oritavancin (ORI) to filtration and dialysis membranes renders most protein binding methodologies unsuitable. To control for any impact of serum components on bacterial growth and antibiotic activity, MIC shifts (from arithmetic drug dilutions) and area under the inhibitory curve (AUIC) shifts (from time-kill assays) were quantified in the presence of serum (SER) compared to SER ultrafiltrate (ULTRA; free of albumin) to estimate ORI binding to serum. In this manner, the extent of reduction in oritavancin activity in serum was related to its degree of serum protein binding. […]
(§4) AUIC studies: Time-kill studies were performed using S. aureus ATCC 29213 at a final inoculum of 1×10^6 CFU/mL in 95% serum:5% CAMHB and in 95% serum ultrafiltrate:5% CAMHB. […] The AUIC was calculated using GraphPad Prism software. Percent binding in serum was calculated as follows: % Bound=(1−[AUICultrafiltrate/AUICserum]×100%

[3] = Serum protein binding from time-kill AUIC shift, serum vs serum ultrafiltrate (human); format: in vitro ADME; settings: pooled human serum compared with serum ultrafiltrate, read-out: Protein binding from area under the bacterial kill curves (converted)
From the text: as §3, §1, §4

human plasma [4] = settings: broth microdilution, various concentrations, Zhanel et al. 1998; cited from earlier work
human plasma [5] = settings: DCC adsorption, 1-91 μg/ml, Rowe and Brown 2001; cited from earlier work
[6] = Serum protein binding estimated from MIC shift, serum vs serum ultrafiltrate (mouse); format: in vitro ADME; settings: mouse serum; from mean MICs, broth microdilution; this study; read-out: % Bound (protein binding estimate) (converted)
From the text: as §3, §1
as §2, with “Arithmetic dilutions of oritavancin and comparators were used to increase precision of minimum inhibitory concentration (MIC) values relative to doubling dilutions.” left out

[7] = Serum protein binding from MIC shift, summary across species; format: in vitro ADME, human, mouse, rat, dog; settings: beagle (dog); human, mouse, rat, dog serum; MIC shift; read-out: Mean serum protein binding, range for the four species tested
From the text: as §3, §1
as §2, with “Arithmetic dilutions of oritavancin and comparators were used to increase precision of minimum inhibitory concentration (MIC) values relative to doubling dilutions.” left out

serum protein = test: as above; format: in vitro ADME, human, mouse, rat, dog; settings: cross-species comparative study and concordant data
From the text: as §3, §1
as §2, with “Arithmetic dilutions of oritavancin and comparators were used to increase precision of minimum inhibitory concentration (MIC) values relative to doubling dilutions.” left out

human serum = settings: broth microdilution, various concentrations, Craig, unpublished; cited from earlier work
rat plasma = settings: broth microdilution, various concentrations, cited from earlier work
Albumin = Albumin (Homo sapiens, UniProt P02768); settings: cantilever nanosensor, 0.2 μg/ml, McKendry, unpublished; cited from earlier work
Albumin, sequence (P02768 25-609): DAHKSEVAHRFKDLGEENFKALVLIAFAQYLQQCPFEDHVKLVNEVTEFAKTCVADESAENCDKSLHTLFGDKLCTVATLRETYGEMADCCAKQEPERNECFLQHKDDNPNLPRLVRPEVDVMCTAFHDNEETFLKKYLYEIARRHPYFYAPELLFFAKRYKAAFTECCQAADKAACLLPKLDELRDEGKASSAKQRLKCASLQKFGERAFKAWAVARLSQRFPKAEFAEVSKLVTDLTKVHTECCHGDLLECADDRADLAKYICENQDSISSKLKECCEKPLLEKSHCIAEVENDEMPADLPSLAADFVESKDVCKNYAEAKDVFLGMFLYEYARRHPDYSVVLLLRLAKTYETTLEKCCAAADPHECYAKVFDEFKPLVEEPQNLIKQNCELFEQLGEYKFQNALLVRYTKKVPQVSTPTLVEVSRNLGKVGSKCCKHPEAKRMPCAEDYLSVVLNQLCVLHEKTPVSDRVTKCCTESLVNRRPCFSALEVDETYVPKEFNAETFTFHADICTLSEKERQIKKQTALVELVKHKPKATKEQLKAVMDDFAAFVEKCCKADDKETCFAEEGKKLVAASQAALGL

[8] = system: exponentially-growing S. aureus (MSSA, MRSA, VRSA); settings: within 15 minutes to 2 hours; against MSSA, MRSA, and VRSA; McKay et al. 2009; cited from earlier work
[9] = Serum protein binding from time-kill AUIC shift, serum vs serum ultrafiltrate (mouse); format: in vitro ADME; settings: pooled mouse serum compared with serum ultrafiltrate, read-out: Protein binding from area under the bacterial kill curves (converted)
From the text: as §3, §1, §4

[10] = Serum protein binding estimated from MIC shift, serum vs serum ultrafiltrate (dog); format: in vitro ADME; settings: beagle dog serum; from mean MICs, broth microdilution; this study; read-out: % Bound (protein binding estimate) (converted)
From the text: as §3, §1
as §2, with “Arithmetic dilutions of oritavancin and comparators were used to increase precision of minimum inhibitory concentration (MIC) values relative to doubling dilutions.” left out

[11] = Serum protein binding estimated from MIC shift, serum vs serum ultrafiltrate (human); format: in vitro ADME; settings: from mean MICs, broth microdilution, this study, read-out: % Bound (protein binding estimate) (converted)
From the text: as §3, §1
as §2, with “Arithmetic dilutions of oritavancin and comparators were used to increase precision of minimum inhibitory concentration (MIC) values relative to doubling dilutions.” left out

`CN[C@H](CC(C)C)C(=O)N[C@H]1C(=O)N[C@@H](CC(N)=O)C(=O)N[C@H]2C(=O)N[C@H]3C(=O)N[C@H](C(=O)N[C@H](C(=O)O)c4cc(O)cc(O)c4-c4cc3ccc4O)[C@H](O[C@H]3C[C@](C)(N)[C@@H](O)[C@H](C)O3)c3ccc(c(Cl)c3)Oc3cc2cc(c3O[C@@H]2O[C@H](CO)[C@@H](O)[C@H](O)[C@H]2O[C@H]2C[C@](C)(NCc3ccc(-c4ccc(Cl)cc4)cc3)[C@@H](O)[C@H](C)O2)Oc2ccc(cc2Cl)[C@H]1O` [Oritavancin, N-(4-(4-chlorophenyl)benzyl)A82846B] showed an MIC (S. aureus ATCC 29213; ATCC29213, read-out: MIC, CAMHB, mean, cation-adjusted Mueller-Hinton broth, CLSI conditions, Dog) of 0.08 µg/mL (≈ 0.0446 µM), an MIC (S. aureus ATCC 29213; ATCC29213, read-out: MIC, CAMHB, mean, cation-adjusted Mueller-Hinton broth, CLSI conditions, Human) of 0.084 µg/mL (≈ 0.0468 µM) and an MIC (S. aureus ATCC 29213; ATCC29213, read-out: MIC, CAMHB, mean, cation-adjusted Mueller-Hinton broth, CLSI conditions, Mouse) of 0.105 µg/mL (≈ 0.0586 µM). It also gave an MIC (S. aureus ATCC 29213; ATCC29213, read-out: MIC, CAMHB, mean, cation-adjusted Mueller-Hinton broth, CLSI conditions, Rat) of 0.086 µg/mL (≈ 0.048 µM), an MIC (S. aureus ATCC 29213; ATCC29213, read-out: MIC, Serum, mean, 95% dog serum + 5% CAMHB) of 0.475 µg/mL and an MIC (S. aureus ATCC 29213; ATCC29213, read-out: MIC, Serum, mean, 95% human serum + 5% CAMHB) of 0.775 µg/mL. It also gave an MIC (S. aureus ATCC 29213; ATCC29213, read-out: MIC, Serum, mean, 95% mouse serum + 5% CAMHB) of 0.538 µg/mL, an MIC (S. aureus ATCC 29213; ATCC29213, read-out: MIC, Serum, mean, 95% rat serum + 5% CAMHB) of 0.313 µg/mL and an MIC (S. aureus ATCC 29213; ATCC29213, read-out: MIC, Ultrafiltrate, mean, 95% dog serum ultrafiltrate + 5% CAMHB) of 0.061 µg/mL. For the same compound, the MIC (S. aureus ATCC 29213; ATCC29213, read-out: MIC, Ultrafiltrate, mean, 95% human serum ultrafiltrate + 5% CAMHB) was 0.14 µg/mL, the MIC (S. aureus ATCC 29213; ATCC29213, read-out: MIC, Ultrafiltrate, mean, 95% mouse serum ultrafiltrate + 5% CAMHB) was 0.079 µg/mL and the MIC (S. aureus ATCC 29213; ATCC29213, read-out: MIC, Ultrafiltrate, mean, 95% rat serum ultrafiltrate + 5% CAMHB) was 0.055 µg/mL. For the same compound, the “Mean Fold MIC Increase” value (S. aureus ATCC 29213; mean MIC in 95% dog serum / mean MIC in 95% dog serum ultrafiltrate) was 7.8 fold, the “Mean Fold MIC Increase” value (S. aureus ATCC 29213; mean MIC in 95% human serum / mean MIC in 95% human serum ultrafiltrate) was 5.5 fold and the “Mean Fold MIC Increase” value (S. aureus ATCC 29213; mean MIC in 95% mouse serum / mean MIC in 95% mouse serum ultrafiltrate) was 6.8 fold. For the same compound, the “Mean Fold MIC Increase” value (S. aureus ATCC 29213; mean MIC in 95% rat serum / mean MIC in 95% rat serum ultrafiltrate) was 5.7 fold, the “Protein Binding” value (mouse serum) was 85.2% and the fraction unbound [1] was 0.176. The fraction unbound [2] was roughly 0.35, the fraction unbound at 0.5 μg/ml ([3]; 0.5 μg/ml oritavancin) was 0.326 and the fraction unbound at 1 μg/ml ([3]; 1 μg/ml oritavancin) was 0.361. For the same compound, the fraction unbound at 2 μg/ml ([3]; 2 μg/ml oritavancin) was 0.383, the “Protein Binding” value (human plasma [4]) was 87.5% and the “Protein Binding” value (human plasma [5]) was 85.7-89.9%. For the same compound, the fraction unbound [6] was 0.147, the fraction unbound [7] was 0.129 to 0.181 and the “Bound to serum protein, overall conclusion across species” value (serum protein) was “approximately 85%”. The “Protein Binding” value (human serum) was 79.6%, the “Protein Binding” value (rat plasma; Zhanel et al. 1998, listed as oritavancin) was “greater than 80%” and the “Protein Binding” value (rat plasma; Zhanel et al. 1998) was greater than 80%. The “Protein Binding” value (Albumin) was 79 ± 0.2%, the “Bactericidal activity, log reduction” value [8] was no less than 3 log and the fraction unbound at 0.5 μg/ml ([9]; 0.5 μg/ml oritavancin) was 0.335. The fraction unbound at 1 μg/ml ([9]; 1 μg/ml oritavancin) was 0.317, the fraction unbound at 2 μg/ml ([9]; 2 μg/ml oritavancin) was 0.312 and the fraction unbound [10] was 0.129. It also gave a fraction unbound [11] of 0.181.
